Earlier results as cited in patent US20240398979A1, “Compositions and Methods for Treating Dopamine Disorders” (METAQOR LLC, priority 2020, published 2024).

Columns and labels:
[1] = tested on: methamphetamine use disorder; settings: randomized controlled trials / meta-analyses

CC1(C)O[C@@H]2[C@@H](CO[C@@]3(COS(N)(=O)=O)OC(C)(C)O[C@@H]23)O1 [Topiramate]
benefit in treatment of MUD [1]: insufficient evidence of benefit for reducing MUD

O=C1CCc2ccc(OCCCCN3CCN(c4cccc(Cl)c4Cl)CC3)cc2N1 [aripiprazole]
benefit in treatment of MUD [1]: insufficient evidence of benefit for reducing MUD

CNCC[C@@H](Oc1ccccc1C)c1ccccc1 [atomoxetine]
benefit in treatment of MUD [1]: insufficient evidence of benefit for reducing MUD

NCC(CC(=O)O)c1ccc(Cl)cc1 (stereo not shown) [baclofen]
benefit in treatment of MUD [1]: insufficient evidence of benefit for reducing MUD

CC(NC(C)(C)C)C(=O)c1cccc(Cl)c1 (stereo not shown) [bupropion]
benefit in treatment of MUD [1]: not effective

NCC1(CC(=O)O)CCCCC1 [gabapentin]
benefit in treatment of MUD [1]: insufficient evidence of benefit for reducing MUD

COC(=O)C(c1ccccc1)C1CCCCN1 (stereo not shown) [methylphenidate]
benefit in treatment of MUD [1]: low-strength evidence that methylphenidate may reduce METH use

CN1CCN2c3ncccc3Cc3ccccc3C2C1 (stereo not shown) [mirtazapine]
benefit in treatment of MUD [1]: not effective

O=C1CC[C@@]2(O)[C@H]3Cc4ccc(O)c5c4[C@@]2(CCN3CC2CC2)[C@H]1O5 [naltrexone]
benefit in treatment of MUD [1]: insufficient evidence of benefit for reducing MUD

Cc1nccn1CC1CCc2c(c3ccccc3n2C)C1=O (stereo not shown) [ondansetron]
benefit in treatment of MUD [1]: No effects

CN[C@H]1CC[C@@H](c2ccc(Cl)c(Cl)c2)c2ccccc21 [sertraline]
benefit in treatment of MUD [1]: not effective

c1cnc2cc3c(cc2n1)[C@@H]1CNC[C@H]3C1 [varenicline]
benefit in treatment of MUD [1]: insufficient evidence of benefit for reducing MUD

B1: brain-derived neurotrophic factor (protein, UniProt P23560 19-247, looked up)
Neurotrophic factor BDNF …: APMKEANIRGQGGLAYPGVRTHGTLESVNGPKAGSRGLTSLADTFEHVIEELLDEDQKVRPNEENNKDADLYTSRVMLSSQVPLEPPLLFLLEEYKNYLDAANMSMRVRRHSDPARRGELSVCDSISEWVTAADKKTAVDMSGGTVTVLEKVPVSKGQLKQYFYETKCNPMGYTKEGCRGIDKRHWNSQCRTTQSYVRALTMDSKKRIGWRFIRIDTSCVCTLTIKRGR
notes: neurotrophin
in vivo half-life: < 5 min
